The record followed here is ChEMBL document CHEMBL1153491, “Discovery of CYT997: a structurally novel orally active microtubule targeting agent” (Bioorg Med Chem Lett, 2009).

In data set [1] the test system is PC-3. Description: Cytotoxicity against human PC3 cells after 72 hrs by MTT assay. The data set is classed as functional, cell-based. Particulars: PC-3, 72 h.
The test system of data set [2] is DU-145. Description: Cytotoxicity against human DU145 cells after 72 hrs by MTT assay. Particulars: DU-145, 72 h. It counts as functional, cell-based.
The test system of data set [3] is PC-3. As to the kind of experiment: Disruption of microtubule network in human PC3 cells after 1 hr. It counts as functional, cell-based.
Data set [4] is described as follows: Apparent volume of distribution in rat at 5 mg/kg, iv in presence of captisol. The data set is classed as ADME, organism-based. Details: dose 5 mg/kg, route intravenous. To be noted: in vivo, read-out: Vz.
A short description of data set [5]: Half life in rat at 5 mg/kg, iv in presence of captisol. The data set is classed as ADME, organism-based. Details: dose 5 mg/kg, route intravenous. Particulars: in vivo.
In data set [6] the test system is PC-3. As to the kind of experiment: Cell cycle arrest in human PC3 cells assessed as accumulation in G2/M phase after 1 hr. It counts as functional, cell-based.
Data set [7] is filed under the species Bos taurus. As to the kind of experiment: Inhibition of bovine tubulin polymerization at 3 uM.
Data set [8] is described as follows: Clearance in rat at 5 mg/kg, iv in presence of captisol. The data set is classed as ADME, organism-based. Details: dose 5 mg/kg, route intravenous. Particulars: in vivo.
The nature of data set [9]: Cmax in rat at 25 mg/kg, po. The data set is classed as ADME, organism-based. Details: dose 25 mg/kg, route oral. Particulars: in vivo.
The nature of data set [10]: Apparent volume of distribution in rat at 5 mg/kg, iv. The data set is classed as ADME, organism-based. Details: dose 5 mg/kg, route intravenous. To be noted: in vivo, read-out: Vz.
Data set [11] is described as follows: Oral bioavailability in rat at 25 mg/kg, po. To be noted: in vivo. The data set is classed as ADME, organism-based.
The nature of data set [12]: Clearance in rat at 5 mg/kg, iv. It counts as ADME, organism-based. Details: dose 5 mg/kg, route intravenous. Particulars: in vivo.
Data set [13] in a line: Half life in rat at 5 mg/kg, iv. Details: dose 5 mg/kg, route intravenous. Particulars: in vivo. The data set is classed as ADME, organism-based.

The structures appear in SMILES notation. The source made the active and inactive calls. No cut-off for these calls is given here.

As to `CCCC(=O)Nc1ccc(-c2cncc(NC(CCC)c3cccnc3)n2)cc1OC` (stereo not drawn), half-maximal inhibition in data set [1] (IC50) required 0.6 µM.

As to `CCCC(Nc1cncc(-c2ccc(NC(=O)NCC)c(OC)c2)n1)c1cccnc1` (stereo not drawn), the IC50 in data set [2] was 0.06 µM; in data set [1], 0.04 µM.

On to `CCC[C@H](Nc1cncc(-c2ccc(NC(=O)NCC)c(OC)c2)n1)c1cccnc1`, for which the result in data set [3] and in data set [6] was Active. Also, the Vd in [4] turned out to be 7.1 L/kg. Also, the half-life in [5] was 0.6 h. For the same compound, the inhibition result in data set [7] is “Active”. In addition, the clearance in data set [8] came to 127 mL/min/kg.

For the compound `CCC[C@H](Nc1cc(C)nc(-c2ccc(NC(=O)NCC)c(OC)c2)n1)c1cccnc1`, the IC50 in data set [2] and in data set [1] was 0.2 µM in each case.

In the case of `CCCC(Nc1cncc(-c2ccc(O)c(OC)c2)n1)c1ccc(Cl)cc1` (stereo not drawn), the figures for the IC50 in [2] and in [1] were 10 µM and 20 µM, respectively.

As to `CCCC(Nc1cncc(-c2ccc(NC(=O)NCC)c(CC)c2)n1)c1cccnc1` (stereo not drawn), the figures for the IC50 in data set [2] and in [1] were 0.1 µM and 0.16 µM, respectively.

On to `CCCC(Nc1cncc(-c2ccc(O)c(OC)c2)n1)c1cccc(Cl)c1` (stereo not drawn), for which the figures for the IC50 in [2] and in data set [1] were 0.6 µM and 1 µM, respectively.

Turning to `CCC[C@H](Nc1cncc(-c2ccc(O)c(OC)c2)n1)c1ccccc1`, the IC50 in data set [2] amounted to 0.2 µM; in [1], 0.16 µM.

`CCCC(Nc1cncc(-c2ccc(O)c(OCC)c2)n1)c1cccnc1` (stereo not drawn) returned an IC50 in data set [1] of 1 µM.

On to `CCCC(Nc1cncc(-c2ccc(O)c(OC)c2)n1)c1cccc(OC)c1` (stereo not drawn), for which the IC50 in [2] amounted to 1 µM; in [1], 10 µM.

Consider `CCC[C@H](Nc1ccnc(-c2ccc(NC(=O)NCC)c(OC)c2)n1)c1cccnc1`, for which the IC50 in data set [2] was 0.2 µM; in data set [1], 0.15 µM.

In the case of `CCCC(Nc1cncc(-c2ccc(O)c(OC)c2)n1)c1ccc(F)cc1` (stereo not drawn), it took 4 µM to reach half-maximal inhibition in data set [2] (IC50).

`COc1cc(-c2cncc(N[C@@H](C)c3ccccc3)n2)ccc1O`: the IC50 in data set [2] is 3 µM; in data set [1], 10 µM.

Turning to `CCC[C@H](Nc1cc(-c2ccc(NC(=O)NCC)c(OC)c2)nc(C)n1)c1cccnc1`, the IC50 in data set [2] was 0.1 µM; in [1] it was 0.08 µM.

`CCCC(Nc1cncc(-c2ccc(O)c(OC)c2)n1)c1cccc(F)c1` (stereo not drawn): the IC50 was found to be 0.3 µM in [2] and 0.6 µM in data set [1].

As for `CCCC(Nc1cncc(-c2ccc(O)c(OC)c2)n1)c1ccc(OC)cc1` (stereo not drawn), the IC50 in data set [2] and in data set [1] was 3 µM throughout.

`CCCC(Nc1cncc(-c2ccc(O)c(OC)c2)n1)c1cccnc1` (stereo not drawn): the IC50 was 0.6 µM in [2] and 0.3 µM in data set [1].

`CCCC(Nc1cncc(-c2ccc(O)c(OC)c2)n1)c1ccccc1` (stereo not drawn): the results for the IC50 in [2] and in data set [1] were 0.5 µM and 0.16 µM, respectively.

For the compound `CCCC(Nc1cncc(-c2ccc(NC(=O)NCCN(C)C)c(OC)c2)n1)c1cccnc1` (stereo not drawn), the IC50 in data set [2] and in [1] was 1 µM throughout.

Take `CCCC(Nc1cncc(-c2ccc(NC(C)=O)c(OC)c2)n1)c1cccnc1` (stereo not drawn): the IC50 in [1] was found to be 5 µM.

As to `CCC[C@H](Nc1cc(-c2ccc(NC(=O)NCC)c(OC)c2)ncn1)c1cccnc1`, the IC50 in data set [2] and in [1] was 0.1 µM each time.

Take `CCCC(Nc1cncc(-c2ccc(O)c(OC(C)C)c2)n1)c1cccnc1` (stereo not drawn): the IC50 in data set [2] and in data set [1] was 10 µM each time.

As to `CC[C@H](Nc1cncc(-c2ccc(O)c(OC)c2)n1)c1ccccc1`, the IC50 in data set [2] and in data set [1] was 10 µM throughout.

`CCC[C@H](Nc1nc(-c2ccc(NC(=O)NCC)c(OC)c2)ncc1C)c1cccnc1` [LEXIBULIN] displayed a Cmax in [9] of 9.4 µM. Moreover, the Vd in data set [10] was found to be 5.2 L/kg. Moreover, the bioavailability in data set [11] worked out at 78%. The IC50 in [2] and in [1] was 0.06 µM in each case. The same compound registered a clearance in [12] of 36.8 mL/min/kg. In data set [13], the half-life is 1.6 h.
